According to PubChem BioAssay (NCI):
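Compound exposure: 48 hours, 5 concentrations, 96-well plates. At the TGI there is no net growth.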

Columns and labels:
Experiment in all cases: DTP human tumour cell line panel, 48 h
BT-549 breast = test system: BT-549 breast
HOP-92 NSCLC = test system: HOP-92 NSCLC
KM12 colon = test system: KM12 colon
M14 melanoma = test system: M14 melanoma
MDA-MB-231 breast = test system: MDA-MB-231 breast
NCI-H23 lung = test system: NCI-H23 lung
NCI-H460 lung = test system: NCI-H460 lung
SK-MEL-2 melanoma = test system: SK-MEL-2 melanoma
T-47D breast = test system: T-47D breast
UO-31 renal = test system: UO-31 renal

Row | SMILES | TGI (BT-549 breast) [µM] | TGI (HOP-92 NSCLC) [µM] | TGI (KM12 colon) [µM] | TGI (M14 melanoma) [µM] | TGI (MDA-MB-231 breast) [µM] | TGI (NCI-H23 lung) [µM] | TGI (NCI-H460 lung) [µM] | TGI (SK-MEL-2 melanoma) [µM] | TGI (T-47D breast) [µM] | TGI (UO-31 renal) [µM]
1 | CN(C)c1ccc(C2CC(=O)CC(c3ccc(N(C)C)cc3)C23C(=O)NC(=O)NC3=O)cc1 (stereo not given) | > 25 | 19 | > 25 | > 25 | > 25 | > 25 | > 25 | > 25 | > 25 | > 25
2 | Fc1ccc(C(OCCN2CCC3CCC(C2)N3CCCc2ccccc2)c2ccc(F)cc2)cc1 (stereo not given) | 21.1 | 18.9 | 11.3 | 4.76 | 13.6 | 15 | 7.51 | 14 | 4.79 | 16.3
3 | CC(=O)Nc1c(C)cc(OCC(=O)O)cc1C | > 100 | > 100 | > 100 | > 100 | > 100 | > 100 | > 100 | > 100 | > 100 | > 100
4 | C[N+](C)(C)CC1Cc2ccccc2C1=O (stereo not given) | > 10 | > 10 | > 10 | > 6.99 | > 10 | > 10 | > 10 | > 10 | 6.49 | > 10
5 | CC[C@@]1(O)C(=O)OCc2c1c(Cl)c1n(c2=O)Cc2cc3ccccc3nc2-1 | > 47.7 | > 70.3 | > 95.5 | 9.04 | > 100 | 6.24 | 4.25 | 52.7 | > 23 | 9.22
6 | CCOP(=O)(CS(C)=O)O[C@@H]1C[C@H](C)CC[C@H]1C(C)C (stereo not given in full) | 17.3 | 16.9 | > 28.7 | 31.2 | 12.8 | 17.6 | 17.6 | 12.8 | > 29.7 | 7.15
7 | COc1c(O)cc(/C=C/c2cc(O)cc3c2[C@@]2(C(=O)O3)c3c(O)cc(O)cc3OC2c2cccc(O)c2)cc1O (stereo not given in full) | > 100 | > 100 | > 100 | > 100 | > 100 | > 100 | 31.9 | > 100 | > 100 | > 100
8 | CCOC(=O)CNC(=O)C(CSC(=O)N(O)c1ccc(Br)cc1)NC(=O)CCC(N)C(=O)OCC (stereo not given) | > 50 | > 50 | > 50 | > 50 | > 50 | > 50 | > 50 | > 50 | > 50 | > 50
9 | CN1CC=C(OP(=O)(NCc2ccccc2)N(CCCl)CCCl)CC1 (stereo not given) | > 100 | > 100 | > 100 | > 100 | > 100 | > 100 | > 100 | > 100 | > 100 | > 100
10 | CCOc1ccc(C2c3[nH]c4ccccc4c3CCN2C(=O)c2cccs2)cc1 (stereo not given) | > 100 | > 100 | > 100 | > 100 | > 100 | > 100 | 32.8 | > 100 | > 100 | > 100
11 | CCCCCCCCCC(=O)OCC1(CO)C/C(=C/CC(C(C)C)C(C)C)C(=O)O1 (stereo not given) | > 100 | > 100 | 83.7 | > 100 | > 100 | > 100 | > 100 | > 100 | > 100 | 95.8
12 | COc1ccc(CSCc2cc(OC)c(OC)c(OC)c2)cc1 | > 100 | > 86.6 | > 100 | > 100 | > 100 | > 100 | > 100 | > 100 | > 100 | > 100
